What was measured:
[1] = target: T1, TLR7 (Mus musculus, UniProt P58681); experiment: NF-kB reporter HEK293 cells expressing murine TLR7 (agonism; lowest active concentration); assay type: cell-based
T1 construct: HEK-Blue-mTLR7 reporter cells
T1 sequence (P58681 27-1050): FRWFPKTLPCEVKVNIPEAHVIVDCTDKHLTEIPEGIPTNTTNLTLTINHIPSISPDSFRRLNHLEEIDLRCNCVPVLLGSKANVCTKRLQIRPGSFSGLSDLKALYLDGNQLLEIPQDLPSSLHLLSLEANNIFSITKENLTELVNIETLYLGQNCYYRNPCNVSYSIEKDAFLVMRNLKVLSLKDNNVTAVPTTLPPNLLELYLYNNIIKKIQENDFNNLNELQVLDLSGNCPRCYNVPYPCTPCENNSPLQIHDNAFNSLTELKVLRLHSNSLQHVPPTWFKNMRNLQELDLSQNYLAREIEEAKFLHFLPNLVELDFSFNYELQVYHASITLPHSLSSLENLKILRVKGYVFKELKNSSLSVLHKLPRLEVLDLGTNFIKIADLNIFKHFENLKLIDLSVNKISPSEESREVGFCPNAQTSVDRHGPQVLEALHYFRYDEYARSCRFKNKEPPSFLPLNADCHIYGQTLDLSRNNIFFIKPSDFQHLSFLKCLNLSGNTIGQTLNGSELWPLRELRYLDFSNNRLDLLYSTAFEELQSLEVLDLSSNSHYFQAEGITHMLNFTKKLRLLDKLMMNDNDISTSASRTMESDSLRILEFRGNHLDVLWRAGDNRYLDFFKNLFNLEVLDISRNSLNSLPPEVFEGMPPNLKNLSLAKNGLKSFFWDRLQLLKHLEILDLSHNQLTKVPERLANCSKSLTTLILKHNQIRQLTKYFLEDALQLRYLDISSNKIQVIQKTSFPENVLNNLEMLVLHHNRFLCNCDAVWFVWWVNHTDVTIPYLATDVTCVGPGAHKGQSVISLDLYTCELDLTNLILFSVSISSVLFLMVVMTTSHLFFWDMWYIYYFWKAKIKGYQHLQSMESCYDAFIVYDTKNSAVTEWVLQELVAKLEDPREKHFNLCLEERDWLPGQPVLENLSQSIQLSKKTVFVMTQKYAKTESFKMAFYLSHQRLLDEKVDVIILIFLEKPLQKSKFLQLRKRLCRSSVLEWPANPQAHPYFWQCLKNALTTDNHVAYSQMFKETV

[2] = target: T2, TLR7 (Homo sapiens, UniProt Q9NYK1); experiment: NF-kB reporter HEK293 cells expressing human TLR7 (agonism; lowest active concentration); assay type: cell-based
T2 construct: HEK-Blue-hTLR7 reporter cells
T2 sequence (Q9NYK1 27-1049): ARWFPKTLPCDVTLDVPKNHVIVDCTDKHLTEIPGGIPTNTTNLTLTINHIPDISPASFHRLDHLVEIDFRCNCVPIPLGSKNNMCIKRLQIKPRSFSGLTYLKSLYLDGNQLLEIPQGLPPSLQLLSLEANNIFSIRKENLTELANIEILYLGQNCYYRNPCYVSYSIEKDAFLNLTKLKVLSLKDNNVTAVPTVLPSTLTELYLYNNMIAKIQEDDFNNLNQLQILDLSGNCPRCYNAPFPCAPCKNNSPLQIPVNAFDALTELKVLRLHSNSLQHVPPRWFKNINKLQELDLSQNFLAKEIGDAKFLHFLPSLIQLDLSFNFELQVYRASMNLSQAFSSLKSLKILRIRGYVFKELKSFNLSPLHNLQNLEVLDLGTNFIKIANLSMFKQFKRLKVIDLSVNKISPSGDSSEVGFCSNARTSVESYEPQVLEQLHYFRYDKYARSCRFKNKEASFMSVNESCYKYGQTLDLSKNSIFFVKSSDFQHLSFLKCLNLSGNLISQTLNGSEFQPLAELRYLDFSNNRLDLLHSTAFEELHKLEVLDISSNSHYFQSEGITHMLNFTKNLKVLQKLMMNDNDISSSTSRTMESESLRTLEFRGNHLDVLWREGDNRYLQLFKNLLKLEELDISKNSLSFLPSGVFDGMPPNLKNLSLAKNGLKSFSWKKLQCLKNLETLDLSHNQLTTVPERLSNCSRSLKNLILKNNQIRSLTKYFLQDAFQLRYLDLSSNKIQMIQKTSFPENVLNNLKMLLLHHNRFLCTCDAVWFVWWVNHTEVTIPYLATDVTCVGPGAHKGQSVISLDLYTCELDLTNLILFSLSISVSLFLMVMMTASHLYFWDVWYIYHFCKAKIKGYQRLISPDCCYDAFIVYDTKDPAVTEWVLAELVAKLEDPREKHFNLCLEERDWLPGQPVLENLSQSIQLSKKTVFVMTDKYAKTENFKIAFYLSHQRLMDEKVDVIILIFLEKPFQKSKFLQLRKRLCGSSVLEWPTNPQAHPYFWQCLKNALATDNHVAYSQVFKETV

`CC(C)Cn1cnc2c(N)nc3ccccc3c21` [imiquimod] was tested, and the “NF-kB reporter HEK293 cells expressing murine TLR7 (agonism); lowest active conce” value [1] was 4.16 µM and the “NF-kB reporter HEK293 cells expressing human TLR7 (agonism); lowest active concen” value [2] was 4.16 µM.

Source: PMC5552358, “Imidazoquinoxaline anticancer derivatives and imiquimod interact with tubulin: Characterization of molecular microtubule inhibiting mechanisms in correlation with cytotoxicity” (PLoS ONE, 2017)
